Biological target: T1, recombinant human liver GK (FLAG fusion protein) (Homo sapiens, UniProt P35557)
T1 construct: made in house; host or cells: E. coli
T1 sequence (P35557 1-466 isoform P35557-2): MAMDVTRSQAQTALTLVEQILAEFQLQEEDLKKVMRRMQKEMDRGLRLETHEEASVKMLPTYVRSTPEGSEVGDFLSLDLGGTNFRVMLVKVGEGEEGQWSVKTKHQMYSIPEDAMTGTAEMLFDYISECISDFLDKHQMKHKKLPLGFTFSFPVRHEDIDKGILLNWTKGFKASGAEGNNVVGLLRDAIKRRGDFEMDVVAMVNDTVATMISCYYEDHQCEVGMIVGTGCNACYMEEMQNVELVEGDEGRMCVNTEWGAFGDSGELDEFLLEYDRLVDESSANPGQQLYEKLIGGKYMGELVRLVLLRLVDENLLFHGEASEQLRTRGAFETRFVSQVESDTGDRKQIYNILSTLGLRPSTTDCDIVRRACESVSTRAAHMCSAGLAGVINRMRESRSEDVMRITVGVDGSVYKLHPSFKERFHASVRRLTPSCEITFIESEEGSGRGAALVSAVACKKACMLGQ
Test: Glucokinase (GK) activation assay, G6PDH-coupled Thio-NADH absorbance at 405 nm
Type: biochemical
Conditions: final glucose concentration 2.5 mM, 30° C.; for EC50: GK activation; for Emax: OD level of DMSO control set as 100%
From the text: The excellent glucokinase-activating effect of the compounds of formula (I) may be determined by a method described in references (for example, Diabetes, Vol. 45, pp. 1671-1677, 1996), or in accordance with it.
The glucokinase activity may be determined not by directly measuring glucose-6-phosphate but by measuring the level of Thio-NADH, which is produced when a reporter enzyme, glucose-6-phosphate dehydrogenase produces phosphogluconolactone from glucose-6-phosphate, and based on the level, the level of glucokinase activation may be determined.
In this assay, used was a recombinant human liver GK, which was expressed by E. coli as a FLAG fusion protein therein and was purified by ANTIFLAG M2 AFFINITY GEL (Sigma).
Using a flat-bottomed 96-well plate, the assay was carried out at 30° C. 69 μl of an assay buffer (25 mM Hepes Buffer/pH=7.2, 2 mM MgCl2, 1 mM ATP, 0.5 mM TNAD, 1 mM dithiothreitol) was put into the plate, and 1 μl of a DMSO solution of the compound or DMSO alone as a control was added thereto. Next, 20 μl of an enzyme mixture (FLAG-GK, 20 U/ml G6PDH) cooled in ice was added to it, and 10 μl of a substrate, 25 mM glucose was added to it, and the reaction was initiated (final glucose concentration=2.5 mM).
After the start of the reaction, the increase in the absorbance at 405 nm was measured for 12 minutes at intervals of 30 seconds, and the increase for the first 5 minutes was used for evaluating the compound tested. FLAG-GK was added so that the absorbance increase after 5 minutes in the presence of 1% DMSO could be from 0.04 to 0.06.
The OD level of the DMSO control was set as 100%; and the OD level of the test compound at different concentrations was determined. From the OD level at each concentration, Emax (%) and EC50 (μM) were computed and used as the index of the GK-activating potency of the compound.

EC50 [nM]	Emax [%]	Compound
880	978	CCS(=O)(=O)c1ccc(Oc2cc3[nH]c(-c4ccccn4)nc3cc2C2CCOC2=O)cc1 (centres unmarked) [Example 36, 3-(6-(4-(ethylsulfonyl)phenoxy)-2-pyridin-2-yl-1H-benzimidazol-5-yl)dihydrofuran-2(3H)-one]
1420	–	CCS(=O)(=O)c1ccc(Oc2cc3[nH]c(-c4cnccn4)nc3cc2C2CCC(=O)O2)cc1 (centres unmarked) [Example 23, 5-(6-(4-(ethylsulfonyl)phenoxy)-2-pyrazin-2-yl-1H-benzimidazol-5-yl)dihydrofuran-2(3H)-one]
1400	–	Cc1nc(-c2ccc(Oc3cc4[nH]c(-c5ccccn5)nc4cc3C3CCCO3)cn2)no1 (centres unmarked) [Example 17, 5-(tetrahydrofuran-2-yl)-6-(6-(5-methyl-(1,2,4)oxadiazol-3-yl)-pyridin-3-yloxy)-2-pyridin-2-yl-1H-benzimidazole]
1580	–	CCS(=O)(=O)c1ccc(Oc2cc3[nH]c(-c4ccccn4)nc3cc2C2OC(=O)N(C)C2=O)cc1 (centres unmarked) [Example 31, 5-(6-(4-(ethylsulfonyl)phenoxy)-2-pyridin-2-yl-1H-benzimidazol-5-yl)-3-methyl-1,3-oxazolidine-2,4-dione]
600	–	CCS(=O)(=O)c1ccc(Oc2cc3[nH]c(-c4ccccn4)nc3cc2C2CCCS2)cc1 (centres unmarked) [Example 29-1, 5-(tetrahydro-2-thienyl)-6-(4-(ethylsulfonyl)phenoxy)-2-pyridin-2-yl-1H-benzimidazole]
1180	923	CCS(=O)(=O)c1ccc(Oc2cc3[nH]c(-c4ccccn4)nc3cc2C2OCCO2)cc1 [Example 1, 5-(1,3-dioxolan-2-yl)-6-(4-(ethylsulfonyl)phenoxy)-2-pyridin-2-yl-1H-benzimidazole]

From US7994331B2, “Heterocycle-substituted benzimidazole derivative” (MSD K.K., priority 2005, dated 2011)
